From PubChem BioAssay AID1259411 (Chemical Carcinogenesis Research Information System (CCRIS), 2018)
Active and inactive are the calls of the source. How the calls were made is not given here.

System: rodent carcinogenicity bioassays, tumor incidence
Assay: CCRIS carcinogenicity studies
Summary of the method: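 Archive of carcinogenicity, mutagenicity, tumor promotion and tumor inhibition results drawn from journals, NCI reports and other sources, expert-reviewed; covers 1985-2011 and is no longer updated.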

## O=C1c2ccccc2C(=O)C1c1ccc2ccccc2n1
Species: RAT, Strain/Sex: F344/FEMALE, Route: ORAL, Dose: 0, 500, 1700, 5000 PPM IN DIET FOR 106 WK (STUDY DURATION: 111 WK), Dose: 0, 500, 1700, 5000 PPM IN DIET FOR 106 WK (STUDY DURATION: 111 WK), Tumor Site: Type of Lesion: LIVER: HEPATOCELLULAR ADENOMA OR CARCINOMA
  carcinogen call: active; positive
Species: RAT, Strain/Sex: F344/MALE, Route: ORAL, Dose: 0, 500, 1700, 5000 PPM IN DIET FOR 105 WK (STUDY DURATION: 110 WK), Dose: 0, 500, 1700, 5000 PPM IN DIET FOR 105 WK (STUDY DURATION: 110 WK), Tumor Site: Type of Lesion: KIDNEY(RENAL TUBULE): ADENOMA OR CARCINOMA, LIVER: HEPATOCELLULAR ADENOMA, ORAL CAVITY: SQUAMOUS CELL PAPILLOMA, SQUAMOU, Tumor Site: Type of Lesion: KIDNEY(RENAL TUBULE): ADENOMA OR CARCINOMA, LIVER: HEPATOCELLULAR ADENOMA, ORAL CAVITY: SQUAMOUS CELL PAPILLOMA, SQUAMOU
  carcinogen call: active; positive

## O=Cc1ccc(CO)o1
Species: MOUSE, Strain/Sex: B6C3F1/MALE, Route: INTRAPERITONEAL, Dose: 0, 0.25, 1 UMOL/G BW IN 5 µL DMSO/G BW ONCE, Dose: 0, 0.25, 1 UMOL/G BW IN 5 µL DMSO/G BW ONCE
  carcinogen call: inactive; negative
Species: MOUSE, Strain/Sex: CD-1/FEMALE, Route: DERMAL, Dose: 0, 50 UMOL/0.1 ML DMSO 2/WK FOR 5 WK FOLLOWED 1 WK LATER BY 0.1 ML ACETONE 2/WK FOR 47 WK (STUDY DURATION: 52 WK)
  carcinogen call: inactive; negative
Species: Mouse, Strain/Sex: B6C3F1/ Female (50/Group), Route: Oral, Dose: 0, 188, 375, 750 mg/kg by gavage in deionized water for 2 yr, Dose: 0, 188, 375, 750 mg/kg by gavage in deionized water for 2 yr, Tumor Site: Type of Lesion: Liver: hepatocellular adenoma (14/50, 26/49, 26/50, 6/50)
  carcinogen call: inactive; negative (ntp reports as some evidence based on increased incidences of hepatoce
Species: Mouse, Strain/Sex: B6C3F1/ Male (50/Group), Route: Oral, Dose: 0, 188, 375, 750 mg/kg by gavage in deionized water for 2 yr, Dose: 0, 188, 375, 750 mg/kg by gavage in deionized water for 2 yr
  carcinogen call: inactive; negative
Species: Rat, Strain/Sex: F344/N / Female (50/Group), Route: Oral, Dose: 0, 188, 375, 750 mg/kg by gavage in deionized water for 2 yr, Dose: 0, 188, 375, 750 mg/kg by gavage in deionized water for 2 yr
  carcinogen call: inactive; negative
Species: Rat, Strain/Sex: F344/N / Male (50/Group), Route: Oral, Dose: 0, 188, 375, 750 mg/kg by gavage in deionized water for 2 yr, Dose: 0, 188, 375, 750 mg/kg by gavage in deionized water for 2 yr
  carcinogen call: inactive; negative

## Oc1c(Cl)cc(Cl)cc1Cl
Species: MOUSE, Strain/Sex: B6C3F1/FEMALE, Route: ORAL, Dose: 0, 5214, 10428 PPM IN DIET, Dose: 0, 5214, 10428 PPM IN DIET, Tumor Site: Type of Lesion: LIVER: HEPATOCELLULAR CARCINOMA OR ADENOMA
  carcinogen call: active; positive
Species: MOUSE, Strain/Sex: B6C3F1/MALE, Route: ORAL, Dose: 0, 5000, 10000 PPM IN DIET, Dose: 0, 5000, 10000 PPM IN DIET, Tumor Site: Type of Lesion: LIVER: HEPATOCELLULAR CARCINOMA OR ADENOMA
  carcinogen call: active; positive
Species: RAT, Strain/Sex: F344/FEMALE, Route: ORAL, Dose: 0, 5000, 10000 PPM IN DIET, Dose: 0, 5000, 10000 PPM IN DIET
  carcinogen call: inactive; negative
Species: RAT, Strain/Sex: F344/MALE, Route: ORAL, Dose: 0, 5000, 10000 PPM IN DIET, Dose: 0, 5000, 10000 PPM IN DIET, Tumor Site: Type of Lesion: HEMATOPOIETIC SYSTEM (LEUKEMIA): MONOCYTIC LEUKEMIA, LYMPHATIC SYSTEM: LYMPHOMA
  carcinogen call: active; positive

## c1ccc2c(c1)ccc1c3ccccc3sc21
Species: RAT, Strain/Sex: OSBORNE-MENDEL/FEMALE, Route: INTRAPULMONARY IMPLANT, Dose: 0, 1, 3, 6 MG IN BEESWAX AND TRIOCTANOIN IMPLANTED IN LUNG (STUDY DURATION: 141 WK), Dose: 0, 1, 3, 6 MG IN BEESWAX AND TRIOCTANOIN IMPLANTED IN LUNG (STUDY DURATION: 141 WK), Tumor Site: Type of Lesion: LUNG: CARCINOMA
  carcinogen call: active; positive

## ClCc1ccccc1
Species: MOUSE, Strain/Sex: B6C3F1/FEMALE, Route: ORAL (GAVAGE), Dose: 0, 50, 100 MG/KG BW 3 X A WK FOR 2 YRS (TEST MATERIAL SOLVENT: CORN OIL), Dose: 0, 50, 100 MG/KG BW 3 X A WK FOR 2 YRS (TEST MATERIAL SOLVENT: CORN OIL), Tumor Site: Type of Lesion: FORESTOMACH: CARCINOMA AND PAPILLOMA, LUNG: ALVEOLAR-BRONCHIOLAR ADENOMA OR CARCINOMA (HIGH DOSE ONLY, P=0.053)
  carcinogen call: active; positive
Species: MOUSE, Strain/Sex: B6C3F1/MALE, Route: ORAL (GAVAGE), Dose: 0, 50, 100 MG/KG BW 3 X A WK FOR 2 YRS (TEST MATERIAL SOLVENT: CORN OIL), Dose: 0, 50, 100 MG/KG BW 3 X A WK FOR 2 YRS (TEST MATERIAL SOLVENT: CORN OIL), Tumor Site: Type of Lesion: FORESTOMACH: CARCINOMA AND PAPILLOMA, LIVER: CARCINOMA OR ADENOMA (LOWER DOSE ONLY), CIRCULATORY SYSTEM: HEMANGIOMA OR H, Tumor Site: Type of Lesion: FORESTOMACH: CARCINOMA AND PAPILLOMA, LIVER: CARCINOMA OR ADENOMA (LOWER DOSE ONLY), CIRCULATORY SYSTEM: HEMANGIOMA OR H
  carcinogen call: active; positive
Species: RAT, Route: SUBCUTANEOUS, Tumor Site: Type of Lesion: INJECTION SITE
  carcinogen call: active; positive
Species: RAT, Strain/Sex: F344/FEMALE, Route: ORAL (GAVAGE), Dose: 0, 15, 30 MG/KG BW 3 X A WK FOR 2 YRS (TEST MATERIAL SOLVENT: CORN OIL), Dose: 0, 15, 30 MG/KG BW 3 X A WK FOR 2 YRS (TEST MATERIAL SOLVENT: CORN OIL), Tumor Site: Type of Lesion: THYROID: C-CELL NEOPLASMS
  carcinogen call: active; positive
Species: RAT, Strain/Sex: F344/MALE, Route: ORAL (GAVAGE), Dose: 0, 15, 30 MG/KG BW 3 X A WK FOR 2 YRS (TEST MATERIAL SOLVENT: CORN OIL), Dose: 0, 15, 30 MG/KG BW 3 X A WK FOR 2 YRS (TEST MATERIAL SOLVENT: CORN OIL)
  carcinogen call: inactive; negative

## O=S(=O)(O)OCc1c2ccccc2cc2c1ccc1ccccc12
Species: RAT, Strain/Sex: SPRAGUE-DAWLEY/FEMALE, Route: SUBCUTANEOUS, Dose: 0, 0.2 UMOL IN SESAME OIL:DMSO (9:1) 3/WK FOR 20 DOSES (STUDY DURATION: 52 WK), Tumor Site: Type of Lesion: INJECTION SITE: SARCOMA
  carcinogen call: active; positive

## c1cc2ccc3cc4cccc5ccc6cc(c1)c2c3c6c54
Species: MOUSE, Route: DERMAL, Tumor Site: Type of Lesion: INTEGUMENTARY SYSTEM (SKIN)
  carcinogen call: active; positive
Species: RAT, Strain/Sex: OSBORNE-MENDEL/FEMALE, Route: LUNG IMPLANT, Dose: 0, 0.16, 0.83 MG IN BEESWAX/TRIOCTANOIN (STUDY DURATION: LIFETIME), Dose: 0, 0.16, 0.83 MG IN BEESWAX/TRIOCTANOIN (STUDY DURATION: LIFETIME), Tumor Site: Type of Lesion: LUNG: EPIDERMOID CARCINOMA
  carcinogen call: active; positive

## Nc1ccn([C@@H]2O[C@H](CO)[C@@H](O)C2O)c(=O)n1 (stereo partly drawn)
Species: RAT, Strain/Sex: SPRAGUE-DAWLEY/FEMALE, Route: INTRAPERITONEAL, Dose: 0, 5, 25 MG/KG IN PHYSIOLOGICAL SALINE 5/WK FOR 72 WK (STUDY DURATION: LIFETIME), Dose: 0, 5, 25 MG/KG IN PHYSIOLOGICAL SALINE 5/WK FOR 72 WK (STUDY DURATION: LIFETIME)
  carcinogen call: inactive; negative
Species: RAT, Strain/Sex: SPRAGUE-DAWLEY/FEMALE, Route: INTRAPERITONEAL, Dose: 0, 500, 1500 MG/KG IN PHYSIOLOGICAL SALINE ON D 1, 3, 5 WITHIN 3 MO, CYCLE REPEATED 6 TIMES (STUDY DURATION: LIFETIME), Dose: 0, 500, 1500 MG/KG IN PHYSIOLOGICAL SALINE ON D 1, 3, 5 WITHIN 3 MO, CYCLE REPEATED 6 TIMES (STUDY DURATION: LIFETIME)
  carcinogen call: inactive; negative
Species: RAT, Strain/Sex: SPRAGUE-DAWLEY/MALE, Route: INTRAPERITONEAL, Dose: 0, 5, 25 MG/KG IN PHYSIOLOGICAL SALINE 5/WK FOR 72 WK (STUDY DURATION: LIFETIME), Dose: 0, 5, 25 MG/KG IN PHYSIOLOGICAL SALINE 5/WK FOR 72 WK (STUDY DURATION: LIFETIME)
  carcinogen call: inactive; negative
Species: RAT, Strain/Sex: SPRAGUE-DAWLEY/MALE, Route: INTRAPERITONEAL, Dose: 0, 500, 1500 MG/KG IN PHYSIOLOGICAL SALINE ON D 1, 3, 5 WITHIN 3 MO, CYCLE REPEATED 6 TIMES (STUDY DURATION: LIFETIME), Dose: 0, 500, 1500 MG/KG IN PHYSIOLOGICAL SALINE ON D 1, 3, 5 WITHIN 3 MO, CYCLE REPEATED 6 TIMES (STUDY DURATION: LIFETIME)
  carcinogen call: inactive; negative

## C[C@]12CC[C@@H]3c4ccc(O)cc4CC[C@H]3[C@@H]1C[C@@H](O)[C@@H]2O
Species: HAMSTER, Route: SUBCUTANEOUS IMPLANT, Tumor Site: Type of Lesion: KIDNEY
  carcinogen call: active; positive
Species: HUMAN, Tumor Site: Type of Lesion: UTERUS (ENDOMETRIUM)
  carcinogen call: active; positive
Species: MOUSE, Route: SUBCUTANEOUS IMPLANT, Tumor Site: Type of Lesion: MAMMARY GLAND
  carcinogen call: active; positive
